Data: patent US11304944B2, “MetAP2 inhibitors and methods of treating obesity” (SynDevRx, Inc., priority 2013, dated 2022)

Key:
[1] = tested on: DIO C57Bl/6 mice; assay: In vivo testing DIO mice schedule-dose response: weight, food intake, ipGTT, HOMA-ir data
Method: Animals were dosed according to the schedule in Table 17 below.
Compound dosing occurred between 9 and 10 am on the day of dosing. Groups 6 and 7 received a total of 17 doses. The q4d groups (1, 2, 3, 4, 8, 9) received a total of 9 doses. The q8d group (5) received a total of 5 drug doses. Body weight and food intake were measured every other day. Blood glucose was measured on Day −7, Day 0, Day 7, Day 14, Day 21 and Day 28 at 9:00 am in fed state (BG measured before dose on dosing days). BG was measured by glucometer. An intraperitoneal glucose tolerance test (ipGTT, 6 h fasting) was performed.
The study was terminated on day 34. Liver and epididymal white adipose tissues (eWAT) were harvested, weighed and stored at −80° C. Sera was collected to determine: AST, ALT, ALP, CK, BUN, creatinine, calcium, potassium, sodium, chloride, total protein, albumin, total bilirubin, glucose, triglyceride and cholesterol. Insulin samples were measured using a commercial kit.

[2] = tested on: DIO C57Bl6 mice; assay: In vivo testing DIO C57Bl6 mice: weight changes, food consumption, body composition (Compound 16 vs TNP-470); settings: for Body Weight Day 33: sc; for Total fat as a percentage of BW / B.W. / Epididymal Fat / Inguinal Fat / Liver / Retroperitoneal Fat / Total Fat: Day 33
Method: C57Bl6 male mice (N=6) thirteen weeks old with an average of weight of 34 g were ad libitum fed TD.06414 a high fat diet composed of 60% Kcal from fat (Harlan diet). On study day 1 animals were randomized into groups so that the average weight of each group was 33.9 g. […] Animals were weighed every other day. Food consumption was measured weekly. On day 33 gross pathology was performed to determine body composition.

In the case of “poly[HPMA-co-MA-GFLG-N-(trans-4-aminocyclohexyl)carbamoylfumagillol] [Compound 16]”, the “Glucose, ipGTT 0 min” value ([1]; 2 mg/kg q4d) is reported as 182.8 mg/dL, the “Glucose, ipGTT 15 min” value ([1]; 2 mg/kg q4d) is reported as 488.6 mg/dL and the “Insulin, ipGTT 0 min” value ([1]; 2 mg/kg q4d) is reported as 104.6 uU/ml. The “Insulin, ipGTT 15 min” value ([1]; 2 mg/kg q4d) was 133.4 uU/ml, the “Glucose, ipGTT 0 min” value ([1]; 6 mg/kg q4d) was 179.8 mg/dL and the “Glucose, ipGTT 15 min” value ([1]; 6 mg/kg q4d) was 557.3 mg/dL. The “Insulin, ipGTT 0 min” value ([1]; 6 mg/kg q4d) was 53.2 uU/ml, the “Insulin, ipGTT 15 min” value ([1]; 6 mg/kg q4d) was 64.3 uU/ml and the “Glucose, ipGTT 0 min” value ([1]; 12 mg/kg Q8D) was 204.0 mg/dL. For the same substance, the “Glucose, ipGTT 15 min” value ([1]; 12 mg/kg Q8D) was 553.1 mg/dL, the “Insulin, ipGTT 0 min” value ([1]; 12 mg/kg Q8D) was 75.9 uU/ml and the “Insulin, ipGTT 15 min” value ([1]; 12 mg/kg Q8D) was 96.0 uU/ml. For the same substance, the fasting insulin ([1]; all Compound 16 groups, FIG. 22) was “fasting insulin was also reduced”, the Body Weight Day 33 ([2]; 0.5 mg/kg/day, qod) was 30.4 g and the “Total fat as a percentage of BW” value ([2]; 1 mg/kg qod) was 8.2%. The Body Weight Day 33 ([2]; 1.5 mg/kg/day, q4d) was 27.4 g, the B.W. ([2]; 6 mg/kg q4d) was 27.4 grams and the “Epididymal Fat” value ([2]; 6 mg/kg q4d) was 0.78 grams. The “Inguinal Fat” value ([2]; 6 mg/kg q4d) was 0.53 grams, the Liver ([2]; 6 mg/kg q4d) was 1.17 grams and the “Retroperitoneal Fat” value ([2]; 6 mg/kg q4d) was 0.23 grams. For the same substance, the “Total Fat” value ([2]; 6 mg/kg q4d) was 1.55 grams, the “Total fat as a percentage of BW” value ([2]; 6 mg/kg q4d) was 5.6% and the “degree of weight loss compared with TNP-470” value ([2]; FIG. 1) was “superior to TNP-470 in the degree of weight loss”. For the same substance, the “food consumption compared with TNP-470” value ([2]; FIG. 2) was “causes a greater reduction in food consumption than TNP-470”, the decrease in weight ([2]; q4d dosing regimen (FIG. 1)) was 19% and the B.W. ([2]; qod (Cmpd 16 1 mg/kg qod)) was 30.4 grams. The “Epididymal Fat” value ([2]; qod (Cmpd 16 1 mg/kg qod)) was 1.18 grams, the “Inguinal Fat” value ([2]; qod (Cmpd 16 1 mg/kg qod)) was 0.92 grams and the Liver ([2]; qod (Cmpd 16 1 mg/kg qod)) was 1.10 grams. The “Retroperitoneal Fat” value ([2]; qod (Cmpd 16 1 mg/kg qod)) was 0.42 grams and the “Total Fat” value ([2]; qod (Cmpd 16 1 mg/kg qod)) was 2.52 grams.
